Data taken from EP1698638A1, “Lipopeptides having pharmaceutical activity” (Technische Universität Berlin, priority 2005, dated 2006).

Tests used:
ATCC 6258 (QC) = assay: microdilution assay (NCCLS), inhibitory concentration (IC); type: cell-based, Candida krusei
Protocol: (§1) More specifically, a determination of inhibitory concentration (IC) of hassallidin A and hassallidin B for various fungi, Candida species and Candida strains were performed with different media (RPMI-1640 or SAB or AM3) in a microdilution assay by following the guidelines in NCCLS documents M^38-P^25 and M27-A2^26 carried out as follows Each substance was dissolved with 100% dimethyl sulfoxide (Serva, Heidelberg, Germany) to give a stock solution of 3.2 mg/ml followed by nine log2 dilution steps with the solvent. This served as a 100-fold concentrated dilution series ranging from 1.6 mg/ml to 0.003 mg/ml of the test substance. The final concentration of the test substance was 16 µg/ml to 0.031 µg/ml.
(§2) Therefore the 100-fold concentrated dilution series (with 100% DMSO) was diluted to the final concentration by two dilution steps: • (1) Each concentration of the 100-fold concentrated substance was diluted with test medium for 1:50 (for ex.: adding of 13 µl of the test substance to 637 µl test medium). • (2) 100 µl of each 1:50 diluted concentration was filled in a row of wells of a microtitre plate. One well was without the substance but with the 1:50 diluted solvent serving as growth control.
(§3) A further 1:2 dilution of the antifungal was made by the inoculation of each well with 100 µl of the test organism, which was suspended in the test medium. The remaining well of the row was used for sterility control of the medium. The inoculum was strictly prepared according the NCCLS^25 guidelines, resulting in […] for Candida-species and Cryptococcus neoformans. For hyphomycetes CFU's were tenfold higher (see NCCLS). ^26 The growth of the hyphomycetes respectively the inhibition was measured by visual reading with the help of a reading mirror; scoring was done according to NCCLS :^26 score 0 corresponds to a optical clear well or an IC95 or higher, score 1 corresponds to an inhibition of 80 percent (IC80) and the score 2 of the NCCLS definition corresponds to the IC50 values in the tables. The growth of the yeasts was measured spectrophotometrically by a microplate reader (MR 5000, Dynatech laboratories) at 630 nm displaying the optical density (OD). The percent inhibition IC50, IC80 or IC95 (corresponding the scores of 2, 1 and 0) was calculated by the following formula: (100−[(ODof the well−ODof the medium)] × 100)/((ODof the growth control−ODof the medium).) [formula] Table 3. Test series for determining IC values of hassallidin A and B in different media using Candida albicans and Candida krusei. The IC values were measured after 24 h and 48 h at 30 °C.

Penicillium sp. = assay: disk diffusion assay on malt agar plates; type: cell-based; details: 10 µg in 30 µL 50% MeOH per disk
Candida albicans SC 5314 = assay: microdilution assay (NCCLS), inhibitory concentration (IC); type: cell-based
Protocol: as §1, §2, §3

Candida albicans = assay: disk diffusion assay on malt agar plates; type: cell-based; details: 10 µg in 30 µL 50% MeOH per disk
[1] = test system: L 929 (murine aneuploid fibrosarcoma) cells; assay: cytotoxicity assay, IC-Tox50 Kit, resazurin (2nd test); type: cell-based; details: down to a concentration of 1.0 µg/mL; decrease of resazurin at 595 nm, 24 h
Protocol: 2nd test Cytotoxicity assays were further performed using the IC-Tox50 Kit from CCS (Cell Culture Service, Hamburg) according to the manufacturers recommendations in 96-well microtitre plates. L 929 (murine aneuploid fibrosarcoma) cells were used and the activity was followed by recording the decrease of the blue pigment resazurin at 595 nm. Down to a concentration of 1.0 µg/mL a hundred percent inhibition of cell activity was determined for hassallidin A and hassallidin B. The cytotoxity assays using deposited L 929 cells were prepared as follows: • Each well contained 140 µl RPMI-1640 medium, 100 µl resazurin solution and 10 µl test solution of hassallidin A or hassallidin B at different concentrations. To obtain 10 µl test solution, 1 µl / 2 µl / 3 µl or 4µl of a 50% methanolic stock solution (25 µg/ 100 µl) were mixed with 9 µl / 8 µl / 7 µl or 6 µl 50% MeOH. For unhindered cell activity, 10 µl 50% MeOH solution was used as test solution. Solutions of 1µg Na2SeO3 / 10 µl (50% MeOH) and 2 µg Na2SeO3 /10 µl (50% MeOH) were used as positive control. • The absorption difference (t0h-t24h) of resazurin metabolised by L 929 cells is graphically represented in figure 6.

Candida glabrata = assay: disk diffusion assay on malt agar plates; type: cell-based; details: 10 µg in 30 µL 50% MeOH per disk
Fusarium sambucium = assay: disk diffusion assay on malt agar plates; type: cell-based; details: 10 µg in 30 µL 50% MeOH per disk
Aspergillus niger = assay: disk diffusion assay on malt agar plates; type: cell-based; details: 10 µg in 30 µL 50% MeOH per disk
Aspergillus fumigatus = assay: disk diffusion assay on malt agar plates; type: cell-based; details: 10 µg in 30 µL 50% MeOH per disk
Ustilago maydis = assay: disk diffusion assay on malt agar plates; type: cell-based; details: 10 µg in 30 µL 50% MeOH per disk
[2] = Table 3 series, RPMI, 30 °C, 24h
[3] = Table 3 series, RPMI, 30 °C, 48h
[4] = Table 3 series, AM3, 30 °C, 24h
[5] = Table 3 series, AM3, 30 °C, 48h
[6] = Table 3 series, SAB, 30 °C, 24h
[7] = Table 3 series, SAB, 30 °C, 48h
[8] = Table 4 series, RPMI-1640 medium, 30°C/24h
[9] = Table 4 series, RPMI-1640 medium, 30°C/48h
[10] = Table 4 series, RPMI-1640 medium, 35°C/24h
[11] = Table 4 series, RPMI-1640 medium, 35°C/48h

Substance: hassallidin B
- IC50 (ATCC 6258 (QC); [2]): 16 µg/mL
- IC80 (ATCC 6258 (QC); [2]): 16 µg/mL
- IC95 (ATCC 6258 (QC); [2]): 16 µg/mL
- IC50 (ATCC 6258 (QC); [3]): 16 µg/mL
- IC80 (ATCC 6258 (QC); [3]): 16 µg/mL
- IC95 (ATCC 6258 (QC); [3]): 16 µg/mL
- antifungal activity in disk diffusion assay (Penicillium sp.): precise antifungal activity
- IC50 (Candida albicans SC 5314; [4]): 4 µg/mL
- IC80 (Candida albicans SC 5314; [4]): 4 µg/mL
- IC95 (Candida albicans SC 5314; [4]): 4 µg/mL
- IC50 (Candida albicans SC 5314; [5]): 8 µg/mL
- IC80 (Candida albicans SC 5314; [5]): 8 µg/mL
- IC95 (Candida albicans SC 5314; [5]): 8 µg/mL
- IC50 (Candida albicans SC 5314; [2]): 16 µg/mL
- IC80 (Candida albicans SC 5314; [2]): 16 µg/mL
- IC95 (Candida albicans SC 5314; [2]): 16 µg/mL
- IC50 (Candida albicans SC 5314; [3]): 16 µg/mL
- IC80 (Candida albicans SC 5314; [3]): 16 µg/mL
- IC95 (Candida albicans SC 5314; [3]): 16 µg/mL
- IC50 (Candida albicans SC 5314; [6]): 8 µg/mL
- IC80 (Candida albicans SC 5314; [6]): 8 µg/mL
- IC95 (Candida albicans SC 5314; [6]): 8 µg/mL
- IC50 (Candida albicans SC 5314; [7]): 8 µg/mL
- IC80 (Candida albicans SC 5314; [7]): 8 µg/mL
- IC95 (Candida albicans SC 5314; [7]): 8 µg/mL
- antifungal activity in disk diffusion assay (Candida albicans): precise antifungal activity
- inhibition of cell activity [1]: a hundred
- antifungal activity in disk diffusion assay (Candida glabrata): precise antifungal activity
- antifungal activity in disk diffusion assay (Fusarium sambucium): precise antifungal activity
- antifungal activity in disk diffusion assay (Aspergillus niger): precise antifungal activity
- antifungal activity in disk diffusion assay (Aspergillus fumigatus): precise antifungal activity
- antifungal activity in disk diffusion assay (Ustilago maydis): precise antifungal activity

Substance: hassallidin A
- IC50 (ATCC 6258 (QC); [2]): 16 µg/mL
- IC80 (ATCC 6258 (QC); [2]): 16 µg/mL
- IC95 (ATCC 6258 (QC); [2]): 16 µg/mL
- IC50 (ATCC 6258 (QC); [3]): 16 µg/mL
- IC80 (ATCC 6258 (QC); [3]): 16 µg/mL
- IC95 (ATCC 6258 (QC); [3]): 16 µg/mL
- IC50 (ATCC 6258 (QC); [8]): 8 µg/mL
- IC80 (ATCC 6258 (QC); [8]): 8 µg/mL
- IC95 (ATCC 6258 (QC); [8]): 8 µg/mL
- IC50 (ATCC 6258 (QC); [9]): 8 µg/mL
- IC80 (ATCC 6258 (QC); [9]): 8 µg/mL
- IC95 (ATCC 6258 (QC); [9]): 8 µg/mL
- IC50 (ATCC 6258 (QC); [10]): 8 µg/mL
- IC50 (ATCC 6258 (QC); [11]): 16 µg/mL
- IC95 (ATCC 6258 (QC); [11]): 16 µg/mL
- antifungal activity in disk diffusion assay (Penicillium sp.): precise antifungal activity
- IC50 (Candida albicans SC 5314; [4]): 4 µg/mL
- IC80 (Candida albicans SC 5314; [4]): 4 µg/mL
- IC95 (Candida albicans SC 5314; [4]): 4 µg/mL
- IC50 (Candida albicans SC 5314; [5]): 8 µg/mL
- IC80 (Candida albicans SC 5314; [5]): 8 µg/mL
- IC95 (Candida albicans SC 5314; [5]): 8 µg/mL
- IC50 (Candida albicans SC 5314; [2]): 16 µg/mL
- IC80 (Candida albicans SC 5314; [2]): 16 µg/mL
- IC95 (Candida albicans SC 5314; [2]): 16 µg/mL
- IC50 (Candida albicans SC 5314; [3]): 16 µg/mL
- IC80 (Candida albicans SC 5314; [3]): 16 µg/mL
- IC95 (Candida albicans SC 5314; [3]): 16 µg/mL
- IC50 (Candida albicans SC 5314; [6]): 4 µg/mL
- IC80 (Candida albicans SC 5314; [6]): 4 µg/mL
- IC95 (Candida albicans SC 5314; [6]): 4 µg/mL
- IC50 (Candida albicans SC 5314; [7]): 8 µg/mL
- IC80 (Candida albicans SC 5314; [7]): 8 µg/mL
- IC95 (Candida albicans SC 5314; [7]): 8 µg/mL
- IC50 (Candida albicans SC 5314; [10]): 8 µg/mL
- IC80 (Candida albicans SC 5314; [10]): 8 µg/mL
- IC95 (Candida albicans SC 5314; [10]): 8 µg/mL
- IC50 (Candida albicans SC 5314; [11]): 8 µg/mL
- IC80 (Candida albicans SC 5314; [11]): 8 µg/mL
- IC95 (Candida albicans SC 5314; [11]): 8 µg/mL
- antifungal activity in disk diffusion assay (Candida albicans): precise antifungal activity
- inhibition of cell activity [1]: a hundred
- antifungal activity in disk diffusion assay (Candida glabrata): precise antifungal activity
- antifungal activity in disk diffusion assay (Fusarium sambucium): precise antifungal activity
- antifungal activity in disk diffusion assay (Aspergillus niger): precise antifungal activity
- antifungal activity in disk diffusion assay (Aspergillus fumigatus): precise antifungal activity
- antifungal activity in disk diffusion assay (Ustilago maydis): precise antifungal activity
